Laboratory results published in ChEMBL document CHEMBL1148317, “A medicinal chemistry perspective on artemisinin and related endoperoxides” (J Med Chem, 2004).
pIC50: −log10 of the molar value.

Experiments:
[1] = Half life of compound was determined; format: ADME
Plasmodium falciparum [2] = experiment: In vitro antimalarial activity for Plasmodium falciparum; format: functional, organism-based
Mus musculus [3] = experiment: In vivo antimalarial activity to reduce parasitaemia in mice (Mus musculus) infected with Plasmodium berghei by 50% of the control; format: functional
Plasmodium falciparum [4] = experiment: Inhibitory concentration against Plasmodium falciparum
Plasmodium falciparum [5] = experiment: In vitro antimalarial activity for Plasmodium falciparum; range 3 nM to 10 nM; format: functional, organism-based
Mus musculus [6] = experiment: In vivo antimalarial activity to reduce parasitaemia in mice (Mus musculus) infected with Plasmodium berghei by 50% of the control; range 1 mg/kg to 3 mg/kg; format: functional
Plasmodium falciparum [7] = experiment: Inhibitory concentration against Plasmodium falciparum; remark: listed apart in the source

SMILES | pIC50 (Plasmodium falciparum [2]) | ED50 (Mus musculus [3]) | also measured
C[C@H]1[C@H](OCc2ccc(C(=O)[O-])cc2)O[C@@H]2O[C@]3(C)CCC[C@H]4[C@H](C)CC[C@@H]1[C@@]24OO3.[Na+] | – | – | half-life [1]: 3 h
CO[C@H]1O[C@@H](c2ccc(C(=O)O)cc2)C2CC[C@H]3CCCCC31OO2 (stereo partly specified) | 7.52 | 10 mg/kg | –
CO[C@H]1O[C@@]2(c3ccc(F)cc3)CCC[C@H]3CCCC[C@]31OO2 | 7.52 | 10 mg/kg | –
C1CCCCCC2(CCCCC1)OOCCCOO2 | 7.60 | 20 mg/kg | pIC50 (Plasmodium falciparum [4]): 8.52
OC1CCC2(CC1)OOC1(O2)C2CC3CC(C2)CC1C3 (stereo unspecified) | – | – | pIC50 (Plasmodium falciparum [5]): 8.00; ED50 (Mus musculus [6]): 3 mg/kg
Clc1ccc2c(NCCNC3CCC4(CC3)OOC3(O4)C4CC5CC(C4)CC3C5)ccnc2c1 (stereo unspecified) | 8.60 | – | –
Fc1ccc(C2=C[C@H]3OC4(CCCC4)OO[C@@]3(c3ccc(F)cc3)C2)cc1 | 8.40 | 2.7 mg/kg | –
C[C@@H]1CC[C@H]2[C@@H](C)C(=O)O[C@@H]3O[C@@]4(C)CC[C@@H]1[C@]32OO4 [ARTEMISININ] | – | – | pIC50 (Plasmodium falciparum [7]): 8.00
CC1(OCc2ccccc2)CCC2C[C@@H]1OO[C@]2(C)CS(=O)(=O)c1ccccc1 (stereo partly specified) | 8.03 | 0.43 mg/kg | –
